Data published in patent publication US20150258197A1, “EUTECTIC ISOMETHEPTENE MUCATE” (TONIX PHARMA HOLDINGS LIMITED, priority 2014, published 2015).

Assays:
[1] = cited from earlier work
[2] = system: imidazoline-1 (I1) receptor; conditions: cited from earlier work
mice [3] = assay: Formalin Test, late phase (licking score); format: in vivo; conditions: mouse, 5% formalin intraplantar, three doses p.o. 15 minutes before the test, 15-50 min after formalin
Text: (§1) Common mouse models for pain include the Formalin Test (Wheeler-Aceto, et al., Psychopharmacology, 104, 35-44, 1991), the Hot Plate Test (Eddy and Leimbach, J. Pharmacol. Exp. Ther., 107, 385-393, 1953), and the Tail-flick Test (D'Amour and Smith, J. Pharmacol. Exp. Ther., 1, 74-79, 1941). These methods detect analgesic activity of compositions of interest. In the Formalin Test, mice are given an intraplantar injection of 5% formalin into one posterior hindpaw to induce paw licking. Test compositions are given to the mice before treatment with formalin and the mice are evaluated and compared to a control group. In the Hot Plate Test, mice are placed onto a hot metal plate maintained at 54° C. and the latency to the first foot-lick is measured. As with the Formalin test, compositions of interest are given to the mice before the test and the mice are evaluated and compared to a control group. In the Tail-flick Test, a mouse's tail is heated by means of a thermal light source, and the latency before the animal withdraws its tail is measured. […]
Mice were given an intraplantar injection of 5% formalin (25 μL) into one posterior hindpaw. […] Mice were briefly observed at one minute intervals between 15 and 50 minutes after the injection of formalin and the number of occasions that the mice were observed licking the injected paw was recorded. […]

mice [4] = assay: Hot Plate Test; format: in vivo; conditions: mouse, hot plate 54° C., 10, 30 and 100 mg/kg p.o. 15 minutes before the test
Text: as §1
Mice were placed onto a hot metal plate maintained at 54° C. surrounded by a Plexiglas cylinder (height: 13 cm; diameter: 19 cm). The latency to the first foot-lick was measured (maximum: 30 seconds). […]
Data with the test substance were analyzed by comparing treated groups with vehicle control using ANOVA followed by post-hoc Dunnett's tests. […]

mice [5] = assay: Tail-flick Test; format: in vivo; conditions: mouse, thermal light source, three doses (10, 30, 100) p.o. 15 minutes before the test
Text: Common mouse models for pain include the Formalin Test (Wheeler-Aceto, et al., Psychopharmacology, 104, 35-44, 1991), the Hot Plate Test (Eddy and Leimbach, J. Pharmacol. Exp. Ther., 107, 385-393, 1953), and the Tail-flick Test (D'Amour and Smith, J. Pharmacol. Exp. Ther., 1, 74-79, 1941). These methods detect analgesic activity of compositions of interest. In the Formalin Test, mice are given an intraplantar injection of 5% formalin into one posterior hindpaw to induce paw licking. Test compositions are given to the mice before treatment with formalin and the mice are evaluated and compared to a control group. In the Hot Plate Test, mice are placed onto a hot metal plate maintained at 54° C. and the latency to the first foot-lick is measured. As with the Formalin test, compositions of interest are given to the mice before the test and the mice are evaluated and compared to a control group. In the Tail-flick Test, a mouse's tail is heated by means of a thermal light source, and the latency before the animal withdraws its tail is measured. Test compositions are administered before the test, and compared with a vehicle control group. The analgesic activity of the compositions described herein can be identified using the mouse formalin, hot plate, and tail-flick tests.
A method for detecting analgesic activity followed that described by D'Amour and Smith (J. Pharmacol. Exp. Ther., 1, 74-79, 1941). The mouse's tail was heated by means of a thermal light source (20 volts). The latency before the animal withdraws its tail was measured (maximum: 15 seconds).
Ten mice were studied per group. The test was performed partially blind.
The test substances selected from (R)-isometheptene mucate, and (S)-isometheptene mucate were evaluated at three doses ([…]), administered p.o. 15 minutes before the test, and compared with a vehicle control group. […]
Data with the test substance were analyzed by comparing treated groups with vehicle control using ANOVA followed by post-hoc Dunnett's tests. Data with the reference substance were analyzed using unpaired Student's t tests.

[6] = compared with (S)-isometheptene

In the case of `CNC(C)CCC=C(C)C` (racemic) [Racemic isometheptene, reference compound], the “Heart rate and diastolic blood pressure” value ([1]; in vivo) is listed as “increase”.

For `CN[C@H](C)CCC=C(C)C` [(R)-isometheptene], the “Potential adverse effects to the cardiovascular system relative to (S)-isometheptene” value [1, 6] is listed as “lower potential adverse effects”, the “Binding affinity for the imidazoline-1 (I1) receptor” value [2] is listed as “significant binding affinity” and the “I1 affinity relative to (S)-isometheptene” value [2, 6] is listed as “higher affinity”.

With `CN[C@@H](C)CCC=C(C)C` [(S)-isometheptene mucate] the “Licking score compared to vehicle” value (mice [3]) was “reduction in licking score”, the “Foot-licking latency compared to vehicle” value (mice [4]) was “longer foot-licking latency times” and the “Tail flick latency compared to vehicle” value (mice [5]) was “longer tail flick latency times”.
